The source of these data is US20250376472A1, “3-(PHENYLSULFONYL)-[1,2,3]TRIAZOLO[1,5A]QUINAZOLIN-5(4H)-ONE DERIVATIVES” (priority 2022, published 2025).

Molecules are shown by their SMILES.

Test [1] concerns the target T1, AgrA (Staphylococcus aureus, UniProt P0A0I7).
T1 construct: endogenous in cells; host or cells: S. aureus USA300 strain UAMS-1625 carrying a P3-lacZ reporter plasmid
The conditions noted are these: all four agr groups; cited from earlier work.

Test [2] relates to S. aureus. The conditions noted are these: after multiple passages with Savirin; cited from earlier work.
For the next test, the system named is MRSA USA300 type strain. Conditions: mice infected with MRSA USA300 type strain, applied multiple times; cited from earlier work.
In test [3] the test system is S. aureus. Conditions: cited from earlier work.
Another test has as its system red blood cell (RBC). The conditions noted are these: cited from earlier work.
For test [4], the target named is T1, AgrA. The test can be described thus: cell-based. Also on record: species or system S. aureus. The conditions noted are these: for Ratio IC50 (in presence of HSA)/IC50 (in absence of HSA): 40 mg/mL HSA versus no HSA.
Setting [5] is: IC50 at 40 mg/mL HSA, LB medium supplemented with human serum albumin 40 mg/mL.
Where [6] appears, read: IC50 without HSA, LB medium, no human serum albumin, 18 hours incubation.
Where [7] appears, read: LB medium supplemented with human serum albumin 40 mg/mL.
Where [8] appears, read: LB medium, no human serum albumin, 18 hours incubation.

T1 sequence (P0A0I7 whole entry): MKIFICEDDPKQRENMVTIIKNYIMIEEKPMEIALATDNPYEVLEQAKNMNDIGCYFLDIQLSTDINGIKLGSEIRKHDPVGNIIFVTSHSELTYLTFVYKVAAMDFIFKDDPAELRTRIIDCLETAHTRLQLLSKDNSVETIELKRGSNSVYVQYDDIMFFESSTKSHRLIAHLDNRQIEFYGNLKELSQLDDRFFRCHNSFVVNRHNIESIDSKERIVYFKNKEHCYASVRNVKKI

As to `CC(C)c1ccc(S(=O)(=O)c2nnn3c2nc(O)c2ccccc23)cc1` [Savirin], the “modulation of AgrA-regulated toxin gene transcription (hla, psma, pvl)” value on AgrA [1] was “potent modulator”. In the test with S. aureus [2], the resistance development result is recorded as “No resistance was developed”. In the test with MRSA USA300 type strain, the “abscess size and dermonecrosis” value was “significant reduction”. Besides, the “viability of S. aureus” value in the test with S. aureus [3] was “without affecting viability”. In the test on red blood cell (RBC), the “exotoxin-induced red blood cell (RBC) lysis” value is “inhibited”.
By IC50 is commonly meant the midpoint of a concentration-inhibition curve. A higher IC50 goes with weaker potency. Turning to `Cc1ccc(S(=O)(=O)c2nnn3c2[nH]c(=O)c2ccc(N4CCN(CC(=O)NCCCC5CCCCC5)CC4)cc23)c(C)c1` [Compound 44], the figures for the half-inhibitory concentration (IC50) on AgrA [4] (setting [5]) and on AgrA [4] (setting [6]) were 16.1 to 80.7 µM and 1.61 to 8.07 µM, respectively.
On to `Cc1ccc(S(=O)(=O)c2nnn3c2[nH]c(=O)c2ccc(N4CCN(CC(=O)NC5CCOCC5)CC4)cc23)c(C)c1` [Compound 87], for which, on AgrA [4], the “Ratio IC50 (in presence of HSA)/IC50 (in absence of HSA)” value is given as “+++ (+++: ratio ≤ 25)”. The “IC50 at 40 mg/mL HSA” value at AgrA [4] (setting [7]) was “+++ (+++: IC50 ≤ 10 μg/mL)”. Besides, the “IC50 without HSA” value at AgrA [4] (setting [8]) was “+++ (+++: IC50 ≤ 1 μg/mL)”.
In the case of `Cc1ccc(S(=O)(=O)c2nnn3c2[nH]c(=O)c2ccc(N4CCN(CC(=O)NCC5CC5)CC4)cc23)c(C)c1` [Compound 36], the IC50 against AgrA [4] (setting [5]) is 18.2 to 91 µM; against AgrA [4] (setting [6]), < 1.82 µM.
As to `Cc1ccc(S(=O)(=O)c2nnn3c2[nH]c(=O)c2ccc(N4CCN(CC(=O)N5CCCCC5)CC4)cc23)c(C)c1` [Compound 55], the IC50 is 17.7 to 88.7 µM at AgrA [4] (setting [5]) and < 1.77 µM at AgrA [4] (setting [6]).
As for `Cc1ccc(S(=O)(=O)c2nnn3c2[nH]c(=O)c2ccc(N4CCCN(CCC(=O)N5CCCC5)CC4)cc23)c(C)c1` [Compound 163], the IC50 at AgrA [4] (setting [5]) is < 17.3 µM; at AgrA [4] (setting [6]), 1.73 to 8.65 µM.
In the case of `Cc1ccc(S(=O)(=O)c2nnn3c2[nH]c(=O)c2ccc(N4CCN(CC(=O)NCCCN5CCCC5=O)CC4)cc23)c(C)c1` [Compound 97], the IC50 fell in the range of 16.1 to 80.5 µM at AgrA [4] (setting [5]) and 1.61 to 8.05 µM at AgrA [4] (setting [6]).
For `CCCCCCNC(=O)CN1CCN(c2ccc3c(=O)[nH]c4c(S(=O)(=O)c5ccc(C)cc5C)nnn4c3c2)CC1` [Compound 12], the IC50 against AgrA [4] (setting [5]) was 17.2 to 86.2 µM; on AgrA [4] (setting [6]), < 1.72 µM.
As for `Cc1ccc(S(=O)(=O)c2nnn3c2[nH]c(=O)c2ccc(N4CCN(CC(=O)N5CCCCC5CN)CC4)cc23)c(C)c1` (stereo not shown) [Compound 145], the IC50 at AgrA [4] (setting [5]) was 16.9 to 84.4 µM; on AgrA [4] (setting [6]), 1.69 to 8.44 µM.
With `COCCCNC(=O)CN1CCN(c2ccc3c(=O)[nH]c4c(S(=O)(=O)c5ccc(C)cc5C)nnn4c3c2)CC1` [Compound 17], the results for the IC50 against AgrA [4] (setting [5]) and against AgrA [4] (setting [6]) were 17.6 to 88.1 µM and < 1.76 µM, respectively.
On to `Cc1ccc(S(=O)(=O)c2nnn3c2[nH]c(=O)c2ccc(N4CCN(CC(=O)NC5CCC(O)CC5)CC4)cc23)c(C)c1` (stereo not shown) [Compound 43], for which the results for the IC50 against AgrA [4] (setting [5]) and against AgrA [4] (setting [6]) were < 16.8 µM and < 1.68 µM, respectively.
Consider `Cc1ccc(S(=O)(=O)c2nnn3c2[nH]c(=O)c2ccc(N4CCN(CC(=O)NCC(C)C)CC4)cc23)c(C)c1` [Compound 7], for which the half-inhibitory concentration (IC50) on AgrA [4] (setting [5]) is 18.1 to 90.6 µM; on AgrA [4] (setting [6]) it was < 1.81 µM.
As to `COCCNC(=O)CN1CCN(c2ccc3c(=O)[nH]c4c(S(=O)(=O)c5ccc(C)cc5C)nnn4c3c2)CC1` [Compound 16], the IC50 was < 18.1 µM on AgrA [4] (setting [5]) and < 1.81 µM at AgrA [4] (setting [6]).
As for `CCCCCNC(=O)CN1CCN(c2ccc3c(=O)[nH]c4c(S(=O)(=O)c5ccc(C)cc5C)nnn4c3c2)CC1` [Compound 10], the IC50 was 17.7 to 88.4 µM against AgrA [4] (setting [5]) and < 1.77 µM at AgrA [4] (setting [6]).
Turning to `Cc1ccc(S(=O)(=O)c2nnn3c2[nH]c(=O)c2ccc(N4CCN(CC(=O)N5CCC6(CCN(C)CC6)CC5)CC4)cc23)c(C)c1` [Compound 127], the IC50 against AgrA [4] (setting [5]) is 15.5 to 77.3 µM; against AgrA [4] (setting [6]), < 1.55 µM.
With `Cc1ccc(S(=O)(=O)c2nnn3c2[nH]c(=O)c2ccc(N4CCN(CC(=O)N5CCCC5CO)CC4)cc23)c(C)c1` (stereo not shown) [Compound 76], the “Ratio IC50 (in presence of HSA)/IC50 (in absence of HSA)” value at AgrA [4] was “+++ (+++: ratio ≤ 25)”. Besides, on AgrA [4] (setting [7]), the “IC50 at 40 mg/mL HSA” value is “++ (++: 10 μg/mL < IC50 ≤ 50 μg/mL)”. The “IC50 without HSA” value against AgrA [4] (setting [8]) is on record as “++ (++: 1 μg/mL < IC50 ≤ 5 μg/mL)”.
`Cc1ccc(S(=O)(=O)c2nnn3c2[nH]c(=O)c2ccc(N4CCN(CC(=O)NCCc5ccncc5)CC4)cc23)c(C)c1` [Compound 175]: the values for the IC50 against AgrA [4] (setting [5]) and at AgrA [4] (setting [6]) were 16.6 to 83.2 µM and < 1.66 µM, respectively.
As to `Cc1ccc(S(=O)(=O)c2nnn3c2[nH]c(=O)c2ccc(N4CCN(CC(=O)NC(C)C)CC4)cc23)c(C)c1` [Compound 6], the 50% inhibitory concentration (IC50) against AgrA [4] (setting [5]) was < 18.6 µM; on AgrA [4] (setting [6]), < 1.86 µM.
Turning to `Cc1ccc(S(=O)(=O)c2nnn3c2[nH]c(=O)c2ccc(N4CCN(CC(=O)N5CCN(C)CC5)CC4)cc23)c(C)c1` [Compound 58], the IC50 is 17.3 to 86.4 µM against AgrA [4] (setting [5]) and < 1.73 µM on AgrA [4] (setting [6]).
